Patent US9351998B2, “Methods of nourishing animals” (MariCal, Inc., priority 2008, dated 2016)

Tests used:
chick CaSR = test: Plasma calcium in chicks after single oral gavage of CaSR modulator; assay type: in vivo; details: various doses, 2 week old and newly hatched chicks, various intervals of time
Excerpt: Male chicks (either newly hatched or 2 weeks of age) were gavaged with a single application of various doses of the specific CaSR modulator (MC 0100), a specific pharmacological modulator of CaSRs, to increase the apparent sensitivity of the CaSR to agonists such as calcium. An increase in the apparent sensitivity of the chick CaSR to extracellular calcium is expected to result in the “resetting” of the normal range of calcium within the chick to a lower level of plasma calcium since the functioning CaSR are all shifted leftward (more sensitive) on the dose response curve of CaSR for calcium.

chicken CaSR = test: CaSR dependent ERK 1/2 phosphorylation (Western blot) in HEK cells transfected with chicken CaSR; assay type: cell-based; details: 1 micromolar MC 0100
Protocol: HEK cells transfected with the chicken CaSR were cultured under standard conditions (DMEM with 10% FCS). Confluent flasks were serum-starved overnight in DMEM supplemented with 0.2% BSA and pre-incubated for 60 min at 37° C. in the following medium: 125 mM NaCl, 4 mM KCl, 20 mM Hepes, 0.1% glucose, 0.8 mM NaH2PO4, 1 mM MgCl2, 0.1% BSA, 0.5 mM CaCl2, pH 7.45. The cells were then incubated in the same medium without BSA in the presence of different mineral chelates at different concentrations (see below) for 15 min at 37° C. At the end of the incubation treatment media was removed and cells were washed with PBS and than lysed in 250 microliter of M-PER lysis buffer (Pierce Chemical Company, Rockford, Ill.) containing 10 ul/ml of protease inhibitors (Pierce Chemical Company, Rockford, Ill.). Cell lysates were centrifuged for 10 min at 4° C. at 14,000×g. The protein content in the supernatants was analyzed using the BCA Protein Assay system from Pierce Chemical Company, Rockford, Ill. Equal amounts of protein (20 ug) were combined with 4× loading buffer and […] DTT, heated to 95° C., separated by SDS gel electrophoresis and electrotransferred to PVD membranes. The membranes were incubated in 1% BSA in TBS-T (TRIS-buffered saline containing Tween 20 at 0.1%) overnight. After 4 washes in TBS-T the membranes were incubated with primary antibody (anti phosphoERK at 1:400 dilution; this antibody recognizes the phosphorylated form of ERK 1/2) for 1.5 hours at room temperatures, washed 4 times and incubated with secondary antibody (anti mouse at 1:50,000 dilution). After 4 washes in TBS-T the membranes were developed using the ECL Western Blotting system.
The experiments described in FIGS. 34 A and B used the following metal chelate treatments: ZnProteinate, CuProteinate and MnProteinate (Balchem Corporation, New Hampton, N.Y.) at the following concentrations: 0.025% and 2.5%, or at a concentration of 0.025% with 1 micromolar MC 0100 (a calcimimetic); or various concentrations of bacitracin Zn.

## COc1cccc([C@@H](C)NCCCc2ccccc2)c1 [MC0100]
Chick CaSR
  plasma calcium: dose dependent decrease
Chicken CaSR
  effect on ERK1/2 phosphorylation response to 0.025% Cu Proteinate: net reduction
  effect on ERK1/2 phosphorylation response to 0.025% Mn Proteinate: strongly enhanced
